Laboratory results as given in patent publication US20220274947A1, “NOVEL HETEROARYL-TRIAZOLE COMPOUNDS AS PESTICIDES” (Bayer Aktiengesellschaft, priority 2019, published 2022).

Tests used:
Type in all cases: in vivo
Rhipicephalus microplus [1] = assay: Rhipicephalus (Boophilus) microplus injection test (BOOPMI Inj); settings: 168 h, injection into adult engorged female ticks, egg deposition after 7 days, read-out: activity (efficacy: 100% means all eggs are infertile); for pest or weed control at 0.004 mg: application rate 4 μg/tick; for pest or weed control at 0.02 mg: application rate 20 μg/tick
Procedure: Rhipicephalus (Boophilus) Microplus—Injection Test (BOOPMI Inj)
Solvent: dimethyl sulfoxide
To produce a suitable preparation of active compound, 10 mg of active compound are dissolved in 0.5 mL solvent, and the concentrate is diluted with solvent to the desired concentration.
Five adult engorged female ticks (Rhipicephalus microplus) are injected with 1 μL compound solution into the abdomen. The ticks are transferred into replica plates and incubated in a climate chamber.
After 7 days egg deposition of fertile eggs is monitored. Eggs where fertility is not visible are stored in a climate chamber till hatching after about 42 days. An efficacy of 100% means all eggs are infertile; 0% means all eggs are fertile.

Rhipicephalus microplus [2] = assay: Rhipicephalus (Boophilus) microplus in-vitro contact test, larval cattle tick, strain Parkhurst (BOOPMI Cont); settings: application rate 5 μg/cm^2 (=500 g/ha), tick larvae, after 48 hours, read-out: activity (efficacy: 100% means all larvae are dead or moribund)
Procedure: Rhipicephalus (Boophilus) Microplus—In-Vitro Contact Tests Larval Cattle Tick (Strain Parkhurst, Resistant Against Synthetic Pyrethroids) (BOOPMI Cont)
9 mg compound is solved in 1 mL acetone and diluted with acetone to the desired concentration. 250 μL of the test solution is filled in 25 mL glass test tubes and homogeneously distributed on the inner walls by rotation and tilting on a shaking device (2 h at 30 rpm). With a compound concentration of 900 ppm, an inner surface of 44.7 cm^2 and a homogeneous distribution, a dose of 5 μg/cm^2 is achieved.
After the solvent has evaporated, each test tube is filled with 20-50 cattle tick larvae (Rhipicephalus microplus), closed with a perforated lid and incubated in a horizontal position at 85% relative humidity and 27° C. in an incubator. After 48 hours efficacy is determined. The larvae are patted on the ground of the tubes and negative geotactic behavior is recorded.
An efficacy of 100% means all larvae are dead or moribund; 0% means no larvae are dead or moribund.

Diabrotica balteata = Diabrotica balteata spray test; settings: 168 h, wheat seeds, larvae, after 7 days, read-out: activity (efficacy: 100% means all seedlings have grown up like in the untreated, uninfected control); for pest or weed control at 32 µg/disc, 100 g/ha: application rate 100 g/ha (=32 μg/well); for pest or weed control at 160 µg/disc, 500 g/ha: application rate 500 g/ha (=160 μg/well)
Procedure: Diabrotica balteata—Spray Test Solvent: 78.0 parts by weight of acetone • • 1.5 parts by weight of dimethylformamide Emulsifier: alkylarylpolyglycol ether
(§1) To produce a suitable preparation of active compound, 1 part by weight of active compound is mixed with the stated amount of solvent, and the concentrate is diluted with water, containing an emulsifier concentration of 1000 ppm, to the desired concentration. Further test concentrations are prepared by dilution with emulsifier containing water.
Soaked wheat seeds (Triticum aestivum) are placed in a multiple well plate filled with agar and some water and are incubated for 1 day to germinate (5 seeds per well). The germinated wheat seeds are sprayed with a test solution containing the desired concentration of the active ingredient. Afterwards each unit is infected with 10-20 larvae of the banded cucumber beetle (Diabrotica balteata).
After 7 days efficacy in % is determined. 100% means all the seedlings have grown up like in the untreated, uninfected control; 0% means none of the seedlings have grown.

Spodoptera frugiperda = Spodoptera frugiperda spray test; settings: in Zea mays, 168 h, read-out: activity (mortality)
Procedure: Spodoptera Fruaiperda—Spray Test
Solvent: 78.0 parts by weight acetone • 1.5 parts by weight dimethylformamide Emulsifier: alkylarylpolyglycol ether
as §1, with “solvents” for “solvent,”, “and” for “and the concentrate”
Maize (Zea mays) leaf sections are sprayed with a preparation of the active ingredient of the desired concentration. Once dry, the leaf sections are infested with fall armyworm larvae (Spodoptera frugiperda).
After 7 days mortality in % is determined. 100% means all caterpillars have been killed and 0% means none of the caterpillars have been killed.

Rhipicephalus sanguineus = Rhipicephalus sanguineus in-vitro contact test, adult brown dog ticks (RHIPSA Cont); settings: 48 h, after 48 hours, read-out: activity (efficacy: 100% means all ticks are dead or moribund); for pest or weed control at 5 µg/cm2, 500 g/ha: application rate 5 μg/cm^2 (=500 g/ha); for pest or weed control at 1 µg/cm2, 100 g/ha: application rate 1 μg/cm^2 (=100 g/ha)
Procedure: Rhipicephalus sanguineus-In-Vitro Contact Tests with Adult Brown Dog Ticks ([…] Cont) 9 mg compound is solved in 1 mL acetone and diluted with acetone to the desired concentration. 250 μL of the test solution is filled in 25 mL glass test tubes and homogeneously distributed on the inner walls by rotation and tilting on a shaking device (2 h at 30 rpm). […] After 48 hours efficacy is determined. The ticks are patted on the ground of the tubes and are incubated on a heating plate at 45-50° C. for at most 5 minutes. Immotile or uncoordinated moving ticks, which are not able to escape the heat by climbing upwards, are marked as dead or moribund.

Structure (SMILES) | pest or weed control at 0.004 mg (Rhipicephalus microplus [1]) [%] | pest or weed control at 0.02 mg (Rhipicephalus microplus [1]) [%] | pest or weed control at 5 µg/cm2 (Rhipicephalus microplus [2]) [%] | pest or weed control at 32 µg/disc, 100 g/ha (Diabrotica balteata) [%] | mortality at 100 g/ha (Spodoptera frugiperda) [%] | pest or weed control at 160 µg/disc, 500 g/ha (Diabrotica balteata) [%] | mortality at 500 g/ha (Spodoptera frugiperda) [%] | pest or weed control at 5 µg/cm2, 500 g/ha (Rhipicephalus sanguineus) [%] | pest or weed control at 1 µg/cm2, 100 g/ha (Rhipicephalus sanguineus) [%]
CC(NC(=O)c1cc(C(F)(F)F)cc(C(F)(F)F)c1)c1nc(Cl)nn1-c1ccc(C#N)cn1 (racemic) [I-39, 3,5-di(trifluoromethyl)-N-{1-[3-chloro-1-(3-cyano-pyridin-6-yl)-1H-1,2,4-triazol-5-yl]ethyl}-benzamide] | 100 | 100 | 100 | 100 | 100 |  |  |  | 
CC(C)Oc1nc([C@H](C)NC(=O)c2cc(Cl)cc(C(F)(F)F)c2)n(-c2ccc(C#N)cn2)n1 [I-16] | 100 | 100 | 100 |  |  | 100 | 100 |  | 
CC(C)Oc1nc([C@H](C)NC(=O)c2cc(C(F)(F)F)cc(C(F)(F)F)c2)n(-c2ccc(C#N)cn2)n1 [I-17] | 100 | 100 | 100 | 100 | 100 | 100 | 100 |  | 
CC(C)Oc1nc([C@H](C)NC(=O)c2cc(Cl)cc(Cl)c2)n(-c2ccc(C#N)cn2)n1 [I-18] |  | 100 | 90 |  |  | 100 | 83 |  | 
CC(C)c1nc([C@H](C)NC(=O)c2cccc(C(F)(F)F)n2)n(-c2ccc(C#N)cn2)n1 [I-22] | 80 | 100 |  | 100 |  |  |  |  | 
CC(NC(=O)c1cc(Br)cc(C(F)(F)F)c1)c1nc(Cl)nn1-c1ccc(C#N)cn1 (stereo not drawn) [I-40] | 100 | 100 | 100 | 100 | 100 |  |  | 100 | 
C[C@H](NC(=O)c1cc(Cl)cc(SC(F)(F)F)c1)c1nc(C2CC2)nn1-c1ccc(C#N)cn1 [I-45] | 100 |  | 100 | 100 | 100 |  |  |  | 
CC(NC(=O)c1cc(Cl)cc(C(F)(F)F)c1)c1nc(Br)nn1-c1ccc(C#N)cn1 (stereo not drawn) [I-49] |  |  | 100 | 100 | 100 |  |  |  | 
CC(NC(=O)c1cc(Cl)nc(C(F)(F)F)c1)c1nc(Cl)nn1-c1ccc(C#N)cn1 (stereo not drawn) [I-52] |  |  | 100 | 100 | 100 |  |  |  | 
CC(NC(=O)c1cc(Br)cc(Br)c1)c1nc(Br)nn1-c1ccc(C#N)cn1 (stereo not drawn) [I-53] |  |  | 100 | 100 | 100 |  |  |  | 
CC(NC(=O)c1cc(Br)cc(Br)c1)c1nc(Cl)nn1-c1ccc(C#N)cn1 (stereo not drawn) [I-54] |  |  | 100 |  | 100 |  |  |  | 
CC(NC(=O)c1cc(Br)cc(OC(F)(F)F)c1)c1nc(Cl)nn1-c1ccc(C#N)cn1 (stereo not drawn) [I-55] |  |  | 80 | 100 | 100 |  |  |  | 
CC(NC(=O)c1cc(Br)cc(OC(F)(F)F)c1)c1nc(Br)nn1-c1ccc(C#N)cn1 (stereo not drawn) [I-56] |  |  | 100 | 100 | 100 |  |  |  | 
CC(NC(=O)c1cc(Cl)cc(C(F)(F)F)c1)c1nc(Cl)nn1-c1ccc(C#N)cn1 (stereo not drawn) [I-57] |  |  | 100 | 100 | 100 |  |  |  | 
CC(NC(=O)c1cc(Cl)cc(Cl)c1)c1nc(Cl)nn1-c1ccc(C#N)cn1 (stereo not drawn) [I-58] |  |  | 100 |  | 83 |  |  |  | 
CC(NC(=O)c1cncc(C(F)(F)F)c1)c1nc(Cl)nn1-c1ccc(C#N)cn1 (stereo not drawn) [I-59] | 80 |  | 100 |  | 100 |  |  |  | 
CC(NC(=O)c1cc(Cl)cc(OC(F)(F)F)c1)c1nc(Cl)nn1-c1ccc(C#N)cn1 (stereo not drawn) [I-60] |  |  | 100 | 100 | 83 |  |  |  | 
COc1nc([C@H](C)NC(=O)c2cc(F)cc(C#N)c2)n(-c2ccc(C#N)cn2)n1 [I-62] | 100 |  | 90 | 100 |  |  |  |  | 
Cc1nc([C@H](C)NC(=O)c2cccc(Cl)n2)n(-c2ccc(C#N)cn2)n1 [II-51] | 100 | 100 | 90 |  |  |  |  | 100 | 100
Cc1nc([C@H](C)NC(=O)c2cc(Br)cc(C(F)(F)F)n2)n(-c2ccc(C#N)cn2)n1 [II-55] | 100 | 100 | 100 |  |  |  |  |  | 
Cc1nc([C@H](C)NC(=O)c2ccc(Cl)cn2)n(-c2ccc(C#N)cn2)n1 [II-56] | 80 | 100 | 80 |  |  |  |  |  | 
C[C@H](NC(=O)c1cc(Br)cc(C(F)(F)F)n1)c1ncnn1-c1ccc(C#N)cn1 [II-58] |  | 0 |  |  |  |  |  |  | 
C[C@H](NC(=O)c1cc(Cl)cc(C(F)(F)C(F)(F)F)c1)c1ncnn1-c1nccs1 [II-66] | 100 | 100 | 100 | 100 |  | 100 | 100 |  | 
C[C@H](NC(=O)c1cc(Cl)cc(C(F)(F)C(F)(F)F)c1)c1ncnn1-c1ncc(Br)s1 [II-67] | 100 | 100 | 100 |  |  | 100 | 100 |  | 
C[C@H](NC(=O)c1cc(Cl)cc(C(F)(F)C(F)(F)F)c1)c1ncnn1-c1ncc(Cl)s1 [II-68] | 80 | 100 | 100 | 100 |  | 100 | 83 | 100 | 
CC(C)Oc1cc(Br)cc(C(=O)N[C@@H](C)c2ncnn2-c2ccc(C#N)cn2)c1 [II-108] | 80 |  | 90 | 100 | 100 |  |  |  | 80
C[C@H](NC(=O)c1cc(Br)cc(Br)c1)c1ncnn1-c1ccc(C#N)cn1 [II- 13] |  |  |  |  |  | 100 |  |  | 
C[C@H](NC(=O)c1cc(Cl)cc(OC(F)(F)F)c1)c1ncnn1-c1cc(NC(=O)c2ccc(F)cc2)ccn1 [II- 20] |  |  |  |  |  |  | 100 |  | 
